The values that follow come from US20230203060A1 (GENFLEET THERAPEUTICS (SHANGHAI) INC., priority 2020, published 2023).

Structures are written as SMILES.

In assay [1] the test system is phosphorylated ERK downstream of KRAS G12C in MIA PaCa2 cells. Description: Cell p-ERK detection experiment (HTRF) in MIA PaCa2. It counts as cell-based, human. The conditions noted are these: Homo sapiens, MIA PaCa-2, 2 h, MIA PaCa2 cells, 2 hours with compound, Advance ERK phospho-T202/Y204 HTRF kit; read-out: p-ERK IC50. In a few lines: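 Phospho-ERK (T202/Y204) measured by HTRF after 30 min lysis and 4 h antibody incubation in MIA PaCa2 (KRAS G12C) cells, seeded at 2.5E4 per well and treated 2 h with compounds in 3.16-fold steps, final DMSO 0.1%. IC50 from a four-parameter fit of percent inhibition relative to DMSO and blank wells.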

In assay [2] the target is T1, KRAS G12C (Homo sapiens, UniProt P01116, G12C).
T1 construct: purchased Reactionbiology
Description: KRAS G12C NEA-HTRF experiment (SOS1-catalyzed displacement of GDP by GTP). It counts as biochemical. In short, it runs like this: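 His-tagged KRAS G12C preloaded with DY647-GDP was preincubated 15 min at 20 °C with compound, then exchanged with SOS1 (0.2 μM working solution) and GTP (200 μM working solution) for 2 h at 20 °C in the dark. HTRF 665/615 nm ratio with anti-His-Tb was normalised to T0 and no-compound controls; IC50 by four-parameter fit.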

T1 sequence (P01116 1-188 isoform P01116-2 G12C): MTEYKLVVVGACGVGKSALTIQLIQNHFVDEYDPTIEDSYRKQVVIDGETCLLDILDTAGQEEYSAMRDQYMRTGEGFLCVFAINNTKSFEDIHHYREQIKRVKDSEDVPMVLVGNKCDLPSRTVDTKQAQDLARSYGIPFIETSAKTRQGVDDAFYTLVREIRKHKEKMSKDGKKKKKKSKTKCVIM

Consider `C=CC(=O)N1CCN2C(=O)c3c(N4CC(N(C)CC(F)(F)F)CC4(C)C)nc(-c4ccccc4F)c(Cl)c3OC[C@H]2C1` (mixture of isomers) [Z491a, (6aR)-8-acryloyl-4-chloro-1-(2,2-dimethyl-4-(methyl(2,2,2-trifluoroethyl)amino)pyrrolidin-1-yl)-3-(2-fluorophenyl)-6,6a,7,8,9,10-hexahydro-12H-pyrazino[2,1-c]pyrido[3,4-f][1,4]oxazepin-12-one], for which the IC50 in assay [1] worked out at 37 nM; in assay [2], 15 nM.

Regarding `C=CC(=O)N1CCN2C(=O)c3c(N4C[C@H](N(C)CCOC)CC4(C)C)nc(-c4ccccc4F)c(Cl)c3OC[C@H]2C1` (single isomer, unassigned) [Z406-1], the figures for the IC50 in assay [1] and in assay [2] were 73 nM and 31 nM, respectively.

As to `C=CC(=O)N1CCN2C(=O)c3c(N4C[C@@H](O)CC4(C)C)nc(-c4ccccc4F)c(F)c3OC[C@H]2C1` (single isomer, unassigned) [Z408-1], the values for the IC50 in assay [1] and in assay [2] were 305 nM and 159 nM, respectively.

As for `C=CC(=O)N1CCN2C(=O)c3c(N4CC(O)CC4(C)C)nc(-c4c(F)cccc4OC)c(F)c3OC[C@H]2C1` (single isomer, unassigned) [Z450], the half-maximal inhibitory concentration (IC50) in assay [1] was 141 nM; in assay [2], 147 nM.

Turning to `C=CC(=O)N1CCN2C(=O)c3c(N4CC(N(C)C)CC4(C)C)nc(-c4ccccc4F)c(Cl)c3OC[C@H]2C1` (single isomer, unassigned) [Z453-2], the figures for the half-maximal inhibitory concentration (IC50) in assay [1] and in assay [2] were 168 nM and 120 nM, respectively.

Regarding `C=CC(=O)N1CCN2C(=O)c3c(N4C[C@@H](N5CCN(C)CC5)CC4(C)C)nc(-c4ccccc4F)c(Cl)c3OC[C@H]2C1` (single isomer, unassigned) [Z454-1], the values for the concentration for half-maximal inhibition (IC50) in assay [1] and in assay [2] were 13 nM and 9.3 nM, respectively.

Consider `C=CC(=O)N1CCN2C(=O)c3c(N4C[C@H](N5CCN(C)CC5)CC4(C)C)nc(-c4ccccc4F)c(Cl)c3OC[C@H]2C1` (single isomer, unassigned) [Z454-2], for which the IC50 amounted to 67 nM in assay [1] and 35.5 nM in assay [2].

Consider `C=CC(=O)N1CCN2C(=O)c3c(N4C[C@@H](C(=O)O)CC4(C)C)nc(-c4c(O)cccc4F)c(Cl)c3OC[C@H]2C1` (single isomer, unassigned) [Z458-1], for which the half-maximal inhibitory concentration (IC50) in assay [1] worked out at 3560 nM; in assay [2], 8.8 nM.

Turning to `C=CC(=O)N1CCN2C(=O)c3c(N4CCN(C)[C@@H](C)[C@H]4C)nc(-c4ccccc4F)c(Cl)c3OC[C@H]2C1` (single isomer, unassigned) [Z465-1], the IC50 was determined as 137 nM in assay [1] and 144 nM in assay [2].

Regarding `C=CC(=O)N1CCN2C(=O)c3c(N4CC(N5CCOCC5)CC4(C)C)nc(-c4ccccc4F)c(Cl)c3OC[C@H]2C1` (single isomer, unassigned) [Z468-1], the concentration for half-maximal inhibition (IC50) in assay [1] was determined as 82 nM; in assay [2], 35 nM.

Turning to `C=CC(=O)N1CCN2C(=O)c3c(N4C[C@@H](N5CCN(C)CC5)CC4(C)C)nc(-c4c(O)cccc4F)c(Cl)c3OC[C@H]2C1` (single isomer, unassigned) [Z469-1], the half-maximal inhibitory concentration (IC50) in assay [1] came to 8 nM; in assay [2], 5 nM.

`C=CC(=O)N1CCN2C(=O)c3c(N4C[C@H](N5CCN(C)CC5)CC4(C)C)nc(-c4c(O)cccc4F)c(Cl)c3OC[C@H]2C1` (single isomer, unassigned) [Z469-2]: the IC50 stood at 30 nM in assay [1] and 18 nM in assay [2].

Take `C=CC(=O)N1CCN2C(=O)c3c(N4C[C@@H](N5CCC5)CC4(C)C)nc(-c4ccccc4F)c(Cl)c3OC[C@H]2C1` (single isomer, unassigned) [Z471-1]: the half-inhibitory concentration (IC50) in assay [1] came to 188 nM; in assay [2], 73 nM.

`C=CC(=O)N1CCN2C(=O)c3c(N4C[C@H](N5CCC5)CC4(C)C)nc(-c4ccccc4F)c(Cl)c3OC[C@H]2C1` (single isomer, unassigned) [Z471-2]: the IC50 was determined as 1080 nM in assay [1] and 461 nM in assay [2].

For `C=CC(=O)N1CCN2C(=O)c3c(N4C[C@@H](N(C)C)CC4(C)C)nc(-c4cccc(C)c4F)c(Cl)c3OC[C@H]2C1` (single isomer, unassigned) [Z472-1], the IC50 in assay [1] amounted to 189 nM; in assay [2] it was 145 nM.

Take `C=CC(=O)N1CCN2C(=O)c3c(N4C[C@H](N(C)C)CC4(C)C)nc(-c4cccc(C)c4F)c(Cl)c3OC[C@H]2C1` (single isomer, unassigned) [Z472-2]: the values for the IC50 in assay [1] and in assay [2] were 108 nM and 60 nM, respectively.

For the molecule `C=CC(=O)N1CCN2C(=O)c3c(N4CC(N(C)C)CC4(C)C)nc(-c4cccc(F)c4F)c(Cl)c3OC[C@H]2C1` (single isomer, unassigned) [Z473-2], the IC50 in assay [1] was determined as 161 nM; in assay [2], 76.8 nM.

As for `C=CC(=O)N1CCN2C(=O)c3c(N4C[C@@H](N5CCN(C)CC5)CC4(C)C)nc(-c4ccccc4F)c(F)c3OC[C@H]2C1` (single isomer, unassigned) [Z474-1], the IC50 in assay [1] is 64 nM; in assay [2], 89 nM.

For `C=CC(=O)N1CCN2C(=O)c3c(N4C[C@H](N(C)C)CC4(C)C)nc(-c4c(F)ccc(F)c4O)c(Cl)c3OC[C@H]2C1` (single isomer, unassigned) [Z475-2], the results for the concentration for half-maximal inhibition (IC50) in assay [1] and in assay [2] were 107 nM and 79.3 nM, respectively.

Regarding `C=CC(=O)N1CCN2C(=O)c3c(N4C[C@@H](N(C)CC(F)(F)F)CC4(C)C)nc(-c4ccccc4F)c(Cl)c3OC[C@H]2C1` (single isomer, unassigned) [Z491], the 50% inhibitory concentration (IC50) in assay [1] was 27 nM; in assay [2] it was 15 nM.

As for `C=CC(=O)N1CCN2C(=O)c3c(N4C[C@H](N(C)CC(F)(F)F)CC4(C)C)nc(-c4ccccc4F)c(Cl)c3OC[C@H]2C1` (single isomer, unassigned) [Z493], the 50% inhibitory concentration (IC50) in assay [1] is 433 nM; in assay [2], 125 nM.

As for `C=CC(=O)N1CCN2C(=O)c3c(N4C[C@H](N5CC(F)(F)C5)CC4(C)C)nc(-c4ccccc4F)c(Cl)c3OC[C@H]2C1` (single isomer, unassigned) [Z525-1], the values for the IC50 in assay [1] and in assay [2] were 1280 nM and 365 nM, respectively.

Take `C=CC(=O)N1CCN2C(=O)c3c(N4C[C@@H](N5CC(F)(F)C5)CC4(C)C)nc(-c4ccccc4F)c(Cl)c3OC[C@H]2C1` (single isomer, unassigned) [Z525-2]: the figures for the 50% inhibitory concentration (IC50) in assay [1] and in assay [2] were 226 nM and 38.5 nM, respectively.

On to `C=CC(=O)N1CCN2C(=O)c3c(N4C[C@H](N5CC(C(F)(F)F)C5)CC4(C)C)nc(-c4ccccc4F)c(Cl)c3OC[C@H]2C1` (single isomer, unassigned) [Z608-1], for which the values for the half-inhibitory concentration (IC50) in assay [1] and in assay [2] were 1220 nM and 610 nM, respectively.

Turning to `C=CC(=O)N1CCN2C(=O)c3c(N4C[C@@H](N5CCN(C)CC5)CC4(C)C)nc(-c4c(F)cccc4Cl)c(Cl)c3OC[C@H]2C1` (single isomer, unassigned) [Z635-1], the figures for the concentration for half-maximal inhibition (IC50) in assay [1] and in assay [2] were 14 nM and 22.7 nM, respectively.

In assay [2], `C=CC(=O)N1CCN2C(=O)c3c(N[C@H](C)c4ccccc4)nc(-c4c(O)cccc4F)c(Cl)c3OC[C@H]2C1` [Z28, (6aR)-8-acryloyl-4-chloro-3-(2-fluoro-6-hydroxyphenyl)-1-(((R)-1-phenylethyl)amino)-6,6a,7,8,9,10-hexahydro-12H-pyrazino[2,1-c]pyrido[3,4-f][1,4]oxazepin-12-one] had a half-maximal inhibitory concentration (IC50) of 113 nM.

As to `C=CC(=O)N1CCN2C(=O)c3c(N4CCC5CC54)nc(-c4c(O)cccc4F)c(Cl)c3OC[C@H]2C1` (stereo partly drawn) [Z39, (6aR)-8-acryloyl-1-(2-azabicyclo[3.1.0]hexart-2-yl)-4-chloro-3-(2-fluoro-6-hydroxyphenyl)-6,6a,7,8,9,10-hexahydro-12H-pyrazino[2,1-c]pyrido[3,4-f][1,4]oxazepin-12-one], the half-inhibitory concentration (IC50) in assay [1] amounted to 140 nM.

Consider `C=CC(=O)N1CCN2C(=O)c3c(NC45CC(C4)C5)nc(-c4c(O)cccc4F)c(Cl)c3OC[C@H]2C1` [Z41, (6aR)-8-acryloyl-1-(bicyclo [1.1.1]pentan-1-ylamino)-4-chloro-3-(2-fluoro-6-hydroxyphenyl)-6,6a,7,8,9,10-hexahydro-12H-pyrazino[2,1-c]pyrido[3,4-f][1,4]oxazepin-12-one], for which the IC50 in assay [1] was 322 nM.

With `C=CC(=O)N1CCN2C(=O)c3c(OC4CCCN(C)C4)nc(-c4c(O)cccc4F)c(Cl)c3OC[C@H]2C1` (stereo partly drawn) [Z43, (6aR)-8-acryloyl-4-chloro-3-(2-fluoro-6-hydroxyphenyl)-1-((1-methylpiperidin-3-yl)oxy)-6,6a,7,8,9,10-hexahydro-12H-pyrazino[2,1-c]pyrido[3,4-f][1,4]oxazepin-12-one], the 50% inhibitory concentration (IC50) in assay [2] is 171 nM.

In assay [2], `C=CC(=O)N1CCN2C(=O)c3c(N4CCC[C@H]4C)nc(-c4c(O)cccc4F)c(Cl)c3OC[C@H]2C1` [Z48, (6aR)-8-acryloyl-1-((R)-2-methylpyrrolidin-1-yl)-4-chloro-3-(2-fluoro-6-hydroxyphenyl)-6,6a,7,8,9,10-hexahydro-12H-pyrazino[2,1-c]pyrido[3,4-f][1,4]oxazepin-12-one] displayed an IC50 of 150 nM.

In assay [2], `C=CC(=O)N1CCN2C(=O)c3c(N4CCN(C)C[C@@H]4C)nc(C#CC)c(Cl)c3OC[C@H]2C1` [Z459, (R)-8-acryloyl-4-chloro-1-((S)-2,4-dimethylpiperazin-1-yl)-3-(prop-1-yn-1-yl)-6,6a,7,8,9,10-hexahydro-12H-pyrazino[2,1-c]pyrido[3,4-f][1,4]oxazepin-12-one] had a half-inhibitory concentration (IC50) of 9410 nM.

Turning to `C=CC(=O)N1CCN2C(=O)c3c(N4CCN(C)C[C@@H]4C)nc(-c4ccccc4Cl)c(Cl)c3OC[C@H]2C1` [Z461, (R)-8-acryloyl-4-chloro-3-(2-chlorophenyl)-1-((S)-2,4-dimethylpiperazin-1-yl)-6,6a,7,8,9,10-hexahydro-12H-pyrazino[2,1-c]pyrido[3,4-f][1,4]oxazepin-12-one], the IC50 in assay [2] was 331 nM.
